Results on one cell line are retold here after the supplement of paper PMC10307832.

What all share (experiment): relative viability (nuclei count vs DMSO), 5 days (fraction); higher = more cells survive
Compound in the assay “Dactolisib + Phenformin”: Cn1c(=O)n(-c2ccc(C(C)(C)C#N)cc2)c2c3cc(-c4cnc5ccccc5c4)ccc3ncc21 [Dactolisib] + N=C(N)NC(=N)NCCc1ccccc1 [Phenformin] (partner 250 µM)
The essentials: (§1)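 After 5 days of treatment, lung cancer cells in 1536-well plates were fixed and stained in a single step (final 0.05% Triton X-100, 1% formaldehyde, 1 ug/ml Hoechst) and their nuclei counted on 4× images. Treatment had been applied by pin tool the day after seeding as one drug alone or as a fixed anchor-drug dose with five library-drug doses (not always all listed) in √10 steps. Relative viability is the nuclei count of treated wells divided by that of vehicle wells, and values are medians of duplicate plates.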

Compound in the assay “Dactolisib + Navitoclax”: Cn1c(=O)n(-c2ccc(C(C)(C)C#N)cc2)c2c3cc(-c4cnc5ccccc5c4)ccc3ncc21 [Dactolisib] + CC1(C)CCC(c2ccc(Cl)cc2)=C(CN2CCN(c3ccc(C(=O)NS(=O)(=O)c4ccc(N[C@H](CCN5CCOCC5)CSc5ccccc5)c(S(=O)(=O)C(F)(F)F)c4)cc3)CC2)C1 [Navitoclax] (partner 0.5 µM)
In outline:
as §1

Compound in the assay “AZ505 + Palbociclib”: C1CCC(CC1)N(CCNCCC2=C3C(=C(C=C2)O)NC(=O)CO3)C(=O)CCNCCC4=CC(=C(C=C4)Cl)Cl [AZ505] + CC(=O)c1c(C)c2cnc(Nc3ccc(N4CCNCC4)cn3)nc2n(C2CCCC2)c1=O [Palbociclib] (partner 0.5 µM)
In outline: as §1

Compound in the assay “Dactolisib + Vorinostat”: Cn1c(=O)n(-c2ccc(C(C)(C)C#N)cc2)c2c3cc(-c4cnc5ccccc5c4)ccc3ncc21 [Dactolisib] + O=C(CCCCCCC(=O)Nc1ccccc1)NO [Vorinostat] (partner 1 µM)
The essentials: as §1

With UMC-11, the relative viability with Dactolisib + Phenformin (first compound 0.002 µM) came out at 0.326; in the assay with Dactolisib + Phenformin (first compound 0.006325 µM), 0.326; with Dactolisib + Phenformin (first compound 0.02 µM) it was 0.315; with Dactolisib + Phenformin (first compound 0.06325 µM) it was 0.218; in the assay with Dactolisib + Phenformin (first compound 0.2 µM) it was 0.22; with Dactolisib + Navitoclax (first compound 0.002 µM) it was 0.339. In addition, the relative viability with Dactolisib + Navitoclax (first compound 0.006325 µM) was 0.286; with Dactolisib + Navitoclax (first compound 0.02 µM) it was 0.243; with Dactolisib + Navitoclax (first compound 0.06325 µM) it was 0.131; with Dactolisib + Navitoclax (first compound 0.2 µM), 0.124; with AZ505 + Palbociclib (first compound 0.08 µM), 0.303; with AZ505 + Palbociclib (first compound 0.253 µM), 0.33. Moreover, the relative viability with AZ505 + Palbociclib (first compound 0.8 µM) stood at 0.332; with AZ505 + Palbociclib (first compound 2.53 µM), 0.337; with AZ505 + Palbociclib (first compound 8 µM), 0.321; in the assay with Dactolisib + Vorinostat (first compound 0.002 µM) it was 0.407; with Dactolisib + Vorinostat (first compound 0.006325 µM) it was 0.392; with Dactolisib + Vorinostat (first compound 0.02 µM) it was 0.245. The relative viability in the assay with Dactolisib + Vorinostat (first compound 0.06325 µM) was 0.235; with Dactolisib + Vorinostat (first compound 0.2 µM) it was 0.175.
